Results on five compounds are retold here after patent publication US6559139B1, “Combination chemotherapy” (University of Pittsburgh of the Commonwealth System of …, priority 1997, dated 2003).

In data set [1] the test system is SCCVII/SF cells. The following applies: 24 hr, 48 hr and 7 day incubation times; cited from earlier work.
In data set [2] the test system is MEK. The data set can be described thus: quantitative in vitro kinase assay of MEK activity. Format: cell-based. The following applies: 10 nM 1,25D3; vs untreated cells. The procedure: (§1) SCC cells were treated in vitro with 10 nM 1,25D3, and untreated cells served as a control. The level of phosphorylated MAPK was assessed at 24 and 48 hours post treatment. Using Western Blot analysis, the amounts of MAPK, MEK (the kinase responsible for phosphorylating MAPK), MKP-1 (a MAPK-specific phosphatase), and growth factor receptors (EGF, PDGF, and IGF1 growth factor receptors) were assessed as well. Additionally, the activity level of MEK was assessed by quantitative in vitro kinase assays.

In data set [3] the test system is EGF, PDGF, and IGF1 growth factor receptors. Description: Western Blot of growth factor receptors in SCC cells. In kind it is cell-based. As to conditions: 10 nM 1,25D3; vs untreated cells. The procedure:
as §1
Background: A western blot detects proteins with antibodies after separation by electrophoresis.

Data set [4] concerns SCCVII/SF tumor. Description: tumor regrowth assay (delay of tumor growth). The following applies: for fractional tumor volume: vs either agent alone; for Tumor Regrowth Delay: mean±SD of the difference in time for treated and control tumors to reach 4× pretreatment size, Ro23-7553 continuous, cisplatin 6 mg/kg i.p. In kind it is in vivo, C3H/HeJ mice. The procedure:
SCCVII/SF tumor cells (5×10^5) were inoculated s.c. into the flank of the leg of C3H/HeJ mice. On day 9 post implantation, as the tumors were palpable (approximately 5×5 mm), animals were randomized for treatment with low dose i.p. […] After 7 days, 6 mg/kg body weight cytotoxic agent was injected i.p. Control animals received either treatment alone or no treatment. Control (no treatment) animals were given injection of vehicle (PBS) alone or sham pumps were implanted. Tumor growth was assessed by measuring the tumor diameter with calipers three times weekly. […] Post-treatment volumes were expressed as a fraction of pretreatment volume at the time of initial treatment. Tumor regrowth delay was calculated as the mean±standard deviation of the difference in time for treated and control tumor volumes to reach 4 times the pretreatment volume.

For data set [5], the system named is SCCVII/SF cells. The data set can be described thus: in vitro clonogenic assay. Format: cell-based, murine. The following applies: for enhancement of clonogenic cell kill: p<0.001 ANOVA. As for the experimental part:
The in vitro cytotoxicity of drug on tumor cells was determined via the in vitro clonogenic assay (McElwain et al., Mol. Cell. Diff., 3, 31-50 (1995)) with minor modifications as described herein. Briefly, murine SCCVII/SF cells were pre-treated with either 2 nM or 4 nM 1,25D3 or Ro23-7553. […] After 48 hours incubation with 1,25D3 or Ro23-7553, cells were treated for 2 hours with varying concentrations of cytotoxic agent, washed with RPMI 1640 plus FCS, and plated in various dilutions in 6-well tissue culture plates. Following a 7 day incubation at 37° C. in 5% CO2, monolayers were washed with saline, fixed with 100% methanol, and stained with 10% Giemsa; colonies were counted under light microscopy. The surviving fraction was calculated by dividing the cloning efficiency of treated cells by the cloning efficiency of untreated controls.

Data set [6] can be described thus: hypercalcemia in treated SCCVII/SF tumor-bearing animals. Format: in vivo, C3H/HeJ mice.
Data set [7] can be described thus: serum calcium levels in normal mice treated with 1,25D3 with or without zoledronate. As for the experimental part: Normal C3H/HeJ mice were pretreated with 10 μg/kg body weight zoledronate and then treated with 0.25 μg 1,25D3 once a day for three days. Control animals received 1,25D3 alone, and one group of animals received only zoledronate. Following the last 1,25D3 treatment, blood was collected at 0, 24 and 48 hours from each mouse, and the serum calcium levels were measured.

Data set [8] deals with SCCVII/SF tumor. Description: in vivo excision clonogenic tumor cell survival assay. The arrangement: species or system C3H/HeJ mice. As to conditions: for enhancement of clonogenic cell kill: p<0.001 ANOVA. As for the experimental part:
The effect of 1,25D3 or Ro23-7553 alone and/or in combination with various cytotoxic agents on tumor cells in vivo was determined by a modification of the in vivo excision clonogenic tumor cell survival assay (Johnson et al., Cancer Chemother. Pharmacol., 32, 339-46 (1993)). Briefly, SCCVII/SF tumor bearing animals at 14 days post implantation were treated i.p. for 3 days with 1,25D3 or Ro23-7553 at either 0.5 mg/kg body weight/day or at varying doses of 0.03125-0.5 mg/kg body weight/day. […] After 24 hours, aliquots of minced tumor were enzymatically dissociated for 60 min at room temperature with a mixture of type I collagenase (37.5 mg/ml), DNAse (55 mg/ml) and EDTA (1%). Viable tumor cells (determined by trypan blue staining) were then plated at various dilutions. After 7 days incubation, colonies were counted, and numbers of clonogenic cells per gram of tumor were counted. The mean±standard deviation (SD) cell yield, cloning efficiency, and number of clonogenic cells for control (no treatment) tumors (n=40) averaged 139.4±38.2×10^6 viable tumor cells/g tumor, 27.0±0.56%, and 37.5±13.3×10^6 clonogenic tumor cells/g tumor, respectively. The surviving fraction per gram of tumor is defined as the number of clonogenic tumor cells per gram of treated tumor divided by the number of clonogenic tumor cells per gram of control (untreated) tumor. This assay is an accurate measure of in vivo anti-tumor activity; a surviving fraction less than 0.1 correlates with an actual decrease in tumor volume and an increase in tumor regrowth delay (Braunschweiger et al., Cancer Res., 48, 6011-16 (1988); Braunschweiger et al., Cancer Res., 51, 5454-60 (1991)).

Data set [9] relates to MKP-1 (a MAPK-specific phosphatase). Description: Western Blot of MKP-1 in SCC cells. In kind it is cell-based. As to conditions: 10 nM 1,25D3; vs untreated cells. As for the experimental part: as §1
Data set [10] has as its system MAPK. Description: Western Blot of phosphorylated MAPK and MAPK in SCC cells. In kind it is cell-based. As to conditions: 10 nM 1,25D3, vs untreated cells. As for the experimental part:
as §1

The subject of data set [11] is MEK. The data set can be described thus: Western Blot of MEK protein in SCC cells. Format: cell-based. The following applies: 10 nM 1,25D3; vs untreated cells. As for the experimental part:
as §1

A short description of data set [12]: clinical carboplatin / 1,25D3 schedule: carboplatin AUC and myelosuppression. The following applies: for mean AUC of carboplatin: dose calculated to achieve AUC=5, ±1.3. Format: in vivo, human. The procedure:
Patients with malignant tumors were subject to a treatment regimen involving carboplatin and 1,25D3, but 48 hours prior to treatment, each patient was placed on a low calcium diet (250-300 mg/48 hr) and maintained on that diet for at least 7 days.
According to this regimen, each cycle lasts four weeks. For successive cycles, the dosage of 1,25D3 is increased by 30%. For the first two cycles, the patients were divided into two groups as follows:
Group 1. On day 1, this group of patients was given carboplatin (intravenously as a 30-minute infusion in 100 ml of carrier) at a dose calculated to achieve AUC=5. 24 hours later, a plasma sample was taken to determine carboplatin AUC, and the patients were placed on a three-day regimen of subcutaneous 1,25D3 per the schedule indicated in Table 2.
Group 2. On day 1, this group of patients was placed on a three-day regimen of subcutaneous 1,25D3. On day 3, the patients were given carboplatin at a dose calculated to achieve AUC=5. 24 hours later, a plasma sample was taken to determine carboplatin AUC.
Following the first cycle, the groups switched between pretreatment and post treatment. For the third and subsequent cycles in this treatment, the patients were placed on a three-day regimen of subcutaneous 1,25D3. On day 3, the patients were given carboplatin. at a dose calculated to achieve AUC=5. 24 hours later, a plasma sample was taken to determine carboplatin AUC.
Following the first two cycles, patients were assessed to determine the effect on carboplatin AUC by pretreatment vs. post treatment with 1,25D3.

SMILES strings stand for the structures.

Consider `C=C1/C(=C\C=C2/CCC[C@]3(C)[C@@H]([C@H](C)CCCC(C)(C)O)CC[C@@H]23)C[C@@H](O)C[C@@H]1O` [1,25D3, 1,25-dihydroxycholecalciferol], for which the anti-proliferative effects result in data set [1] is given as “anti-proliferative effects are observed”. Further, the MEK activity profile entry in [2] is “not significantly different”. The “amounts of EGF, PDGF, and IGF1 growth factor receptors” value in data set [3] is on record as “significantly higher amounts”. Also, the fractional tumor volume entry in data set [4] (0.2 μg/mouse 1,25D3 continuously for two to eight days, then paclitaxel 40 mg/kg i.p.) is reported as “significant decrease in fractional tumor volume”. The “enhancement of clonogenic cell kill over paclitaxel alone” value in data set [5] (concurrent administration of 1,25D3 and paclitaxel) was “did not result in an enhancement of clonogenic cell kill”. For the same compound, the “enhancement of clonogenic cell kill” value in data set [5] (pretreatment with 2 nM 1,25D3 for 48 hours, then carboplatin, vs carboplatin alone or concurrent) is “significantly enhanced clonogenic cell kill”; in data set [5] (pretreatment with 1,25D3, then paclitaxel), “significantly enhanced clonogenic cell kill”; in data set [8] (1,25D3 0.2 μg/day i.p. 3 days, varying doses of paclitaxel on day 3, vs paclitaxel alone), “significant enhancement of clonogenic cell kill”; in data set [8] (1,25D3 0.5 mg/kg body weight/day i.p. 3 days, carboplatin 25-100 mg/kg on day 3, vs either alone), “significant enhancement of clonogenic cell kill”; in data set [8] (1,25D3 varying doses i.p. 3 days, carboplatin 50 mg/kg on day 3, vs carboplatin alone) it was “significant enhancement of clonogenic cell even at the lowest doses of 1,25D3”. Moreover, the hypercalcemia entry is listed as “No animals became hypercalcemic” in data set [6] (1,25D3 0.2 μg/day 3 days with paclitaxel) and “No animals became hypercalcemic” in [6] (any of the 1,25D3 doses tested, with carboplatin 50 mg/kg). Moreover, the serum calcium levels in data set [7] (24 hours after last 1,25D3 treatment (0.25 μg once a day, three days)) turned out to be 17.2 ± 1.1 mg/dL; in data set [7] (48 hours after last 1,25D3 treatment (0.25 μg once a day, three days)), 16.5 ± 1.1 mg/dL. The “amount of MKP-1” value in data set [9] is recorded as “higher amounts of MKP-1”. The “level of phosphorylated MAPK” value in [10] (24 and 48 hours) is “less phosphorylated MAPK”. Further, in data set [10], the “amount of MAPK protein” value was “not affected”. Moreover, the “amount of MEK protein” value in data set [11] is recorded as “slightly less MEK protein”.

Consider `N.N.[Cl][Pt][Cl]` [Cisplatin, cisplatin], for which, in data set [4], the “Tumor Regrowth Delay” value is on record as 4.4 ± 0.3.

`C=C1/C(=C\C=C2/CCC[C@]3(C)C([C@H](C)CC#CC(C)(C)O)=CC[C@@H]23)C[C@@H](O)C[C@@H]1O` [Ro23-7553, 1,25-dihydroxy-16-ene-23-yne-cholecalciferol]: the anti-proliferative effects result in data set [1] was “anti-proliferative effects are observed”. Besides, in data set [4] (Ro23-7553 administered continuously, then cisplatin 6 mg/kg i.p., p<0.001 ANOVA), the fractional tumor volume result is reported as “significant decrease in fractional tumor volume”. Further, the “Tumor Regrowth Delay” value in [4] is 1.8 ± 0.8. In addition, the “enhancement of clonogenic cell kill” value in [5] (pretreatment with 2 nM and 4 nM Ro23-7553, then 0.2-0.8 μg/ml cisplatin, vs cisplatin alone or concurrent administration) is “significantly enhanced clonogenic cell kill”; in data set [8] (Ro23-7553 0.5 mg/kg body weight/day i.p. 3 days, varying doses of cisplatin on day 3, vs cisplatin or Ro23-7553 alone), “significant enhancement of clonogenic cell kill”. In data set [6] (any of the Ro23-7553 doses (0.03125-0.5 mg/kg/day, 3 days) with cisplatin), the hypercalcemia result is “No animals in either experimental approach became hypercalcemic”. In [8] (Ro23-7553 0.03125-0.5 mg/kg body weight/day 3 days, cisplatin 6 mg/kg on day 3, vs either alone, p<0.01 ANOVA), the “enhancement of cisplatin-mediated tumor cell kill” value is given as “significantly enhancing cisplatin-mediated tumor cell kill even at the lowest doses tested”.

`N.N.O=C([O-])C1(C(=O)[O-])CCC1.[Pt+2]` [carboplatin]: the “mean AUC of carboplatin” value in data set [12] (carboplatin D1) is 7800 ng·h/mL; in [12] (carboplatin D3) it was 6700 ng·h/mL. Also, in data set [12] (carboplatin followed by adjunctive 1,25D3, each patient), the myleosuppression result is listed as “consistently less”. For the same compound, the “AUC of carboplatin when pretreated with 1,25D3 vs carboplatin given first” value in data set [12] (each patient, first two cycles) is given as “higher in each patient”.

Take `O=P(O)(O)C(O)(Cn1ccnc1)P(=O)(O)O` [zoledronate]: the “dehydration, piloerection, and cachexia attributable to hypercalcemia” value in data set [7] (vs control animals (1,25D3 alone)) is “less dehydration, piloerection, and cachexia”.
